Data from the supplement of paper PMC10307832.

Assays:
Experiment in all cases: relative viability (nuclei count vs DMSO), 5 days (fraction); higher = more cells survive
Erlotinib + Dasatinib = compound: C#Cc1cccc(Nc2ncnc3cc(OCCOC)c(OCCOC)cc23)c1 [Erlotinib] + Cc1nc(Nc2ncc(C(=O)Nc3c(C)cccc3Cl)s2)cc(N2CCN(CCO)CC2)n1 [Dasatinib] (partner 0.075 µM)
Summary of the method: (§1)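 For relative viability, nuclei counts in treated wells were divided by those in vehicle wells. Lung cancer cell lines had been pin-tool dosed in 1536-well plates the day after seeding and cultured for 5 days, then fixed and stained in one step (final 0.05% Triton X-100, 1% formaldehyde, 1 ug/ml Hoechst) and imaged at 4×. Doses were one drug alone or a fixed anchor-drug dose plus five library-drug doses (not always all listed) in √10 steps, and values are duplicate-plate medians.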

Erlotinib + Foretinib = compound: C#Cc1cccc(Nc2ncnc3cc(OCCOC)c(OCCOC)cc23)c1 [Erlotinib] + COc1cc2c(Oc3ccc(NC(=O)C4(C(=O)Nc5ccc(F)cc5)CC4)cc3F)ccnc2cc1OCCCN1CCOCC1 [Foretinib] (partner 0.25 µM)
Summary of the method: as §1

Erlotinib + Crizotinib = compound: C#Cc1cccc(Nc2ncnc3cc(OCCOC)c(OCCOC)cc23)c1 [Erlotinib] + C[C@@H](Oc1cc(-c2cnn(C3CCNCC3)c2)cnc1N)c1c(Cl)ccc(F)c1Cl [Crizotinib] (partner 1 µM)
Summary of the method: as §1

Erlotinib + Decitabine = compound: C#Cc1cccc(Nc2ncnc3cc(OCCOC)c(OCCOC)cc23)c1 [Erlotinib] + Nc1ncn([C@H]2C[C@H](O)[C@@H](CO)O2)c(=O)n1 [Decitabine] (partner 2 µM)
Summary of the method: as §1

Erlotinib + Trametinib = compound: C#Cc1cccc(Nc2ncnc3cc(OCCOC)c(OCCOC)cc23)c1 [Erlotinib] + CC(=O)Nc1cccc(-n2c(=O)n(C3CC3)c(=O)c3c(Nc4ccc(I)cc4F)n(C)c(=O)c(C)c32)c1 [Trametinib] (partner 0.02 µM)
Summary of the method: as §1

Row | Cell Line | relative viability (Erlotinib + Dasatinib; first compound 0.02 µM) | relative viability (Erlotinib + Dasatinib; first compound 0.2 µM) | relative viability (Erlotinib + Dasatinib; first compound 0.6325 µM) | relative viability (Erlotinib + Dasatinib; first compound 2 µM) | relative viability (Erlotinib + Foretinib; first compound 0.02 µM) | relative viability (Erlotinib + Foretinib; first compound 0.2 µM) | relative viability (Erlotinib + Foretinib; first compound 2 µM) | relative viability (Erlotinib + Crizotinib; first compound 0.02 µM) | relative viability (Erlotinib + Crizotinib; first compound 0.2 µM) | relative viability (Erlotinib + Crizotinib; first compound 0.6325 µM) | relative viability (Erlotinib + Crizotinib; first compound 2 µM) | relative viability (Erlotinib + Decitabine; first compound 0.02 µM) | relative viability (Erlotinib + Decitabine; first compound 0.2 µM) | relative viability (Erlotinib + Decitabine; first compound 0.6325 µM) | relative viability (Erlotinib + Decitabine; first compound 2 µM) | relative viability (Erlotinib + Trametinib; first compound 0.02 µM) | relative viability (Erlotinib + Trametinib; first compound 0.2 µM) | relative viability (Erlotinib + Trametinib; first compound 0.6325 µM) | relative viability (Erlotinib + Trametinib; first compound 2 µM) | relative viability (Erlotinib + Foretinib; first compound 0.6325 µM)
1 | NCI-H1975 | 0.391 | 0.407 | 0.372 | 0.205 | 0.951 | 1.02 | 0.71 | 0.947 | 0.96 | 1.04 | 0.694 | 0.431 | 0.402 | 0.409 | 0.332 | 0.368 | 0.32 | 0.404 | 0.348 | 
2 | SW 900 | 0.655 | 0.506 | 0.517 | 0.374 | 0.98 | 0.92 | 0.757 |  |  |  |  | 0.392 | 0.526 | 0.429 | 0.374 | 0.867 | 0.761 | 0.771 | 0.631 | 0.792
3 | ABC-1 | 0.564 | 0.491 | 0.506 | 0.565 | 1.03 | 0.547 | 0.818 | 1.07 | 1.14 | 1.44 | 1.18 |  | 0.962 | 0.923 | 1.12 |  |  |  |  | 1.06
4 | NCI-H2228 | 0.625 | 0.492 | 0.5 | 0.368 | 0.897 | 0.885 | 0.815 | 0.516 | 0.476 | 0.379 | 0.32 |  |  |  |  | 0.436 | 0.708 | 0.49 | 0.381 | 0.946
5 | A549 |  |  |  |  | 0.795 | 0.947 | 0.786 | 0.799 | 0.796 | 0.792 | 0.551 | 0.263 | 0.294 | 0.266 | 0.262 |  |  |  |  | 0.902
6 | Calu-6 |  |  |  |  | 0.94 | 0.838 | 0.803 | 0.931 | 0.719 | 0.853 | 0.714 |  |  |  |  |  |  |  |  | 0.886
7 | NCI-H1793 | 0.342 | 0.249 | 0.392 | 0.272 | 0.575 | 0.421 | 0.408 |  |  |  |  | 0.492 | 0.443 | 0.328 | 0.343 | 0.472 | 0.411 | 0.411 | 0.334 | 0.541
8 | EBC-1 |  |  |  |  | 0.0955 | 0.0898 | 0.0948 | 0.206 | 0.189 | 0.169 | 0.164 |  |  |  |  |  |  |  |  | 0.104
9 | NCI-H1623 | 0.562 | 0.517 | 0.315 | 0.366 | 0.923 | 0.679 | 0.301 |  |  |  |  |  |  |  |  |  |  |  |  | 0.366
10 | HCC-44 |  |  |  |  |  |  |  | 0.797 | 0.895 | 0.843 | 0.798 | 1 | 0.972 |  | 1 | 1.07 | 1.01 | 1.1 | 0.981 | 
11 | NCI-H1299 |  |  |  |  | 1.11 | 1.08 | 1.07 | 0.989 |  | 0.988 | 0.965 |  |  |  |  |  |  |  |  | 1.16
12 | NCI-H2342 | 0.289 | 0.323 | 0.304 | 0.26 | 1.08 | 0.899 |  |  |  |  |  | 0.78 |  | 0.701 | 0.683 | 1.14 | 0.814 | 0.803 | 0.74 | 0.932
